US8410056B2, “Pro-oxidant anti-cancer compounds” (priority 2006, dated 2013)
“Also recorded” adds a separate entry of the source. Ends that are not written are not given here.

Tests used:
[1] = tested on: MDA-MB-453, MCF-7 and NeuTL breast cancer cells; assay: ATP bioluminescence assay; format: cell-based, human; murine; details: 6 or 24 h; normoxia or hypoxia
Protocol: (§1) Cell culture and treatment. […] Cells were cultured in DMEM with 10% FCS, 100 U/ml penicillin and 100 μg/ml streptomycin at 37° C. in a humidified atmosphere of 5% CO2. Mitochondrial complex I-deficient (Breen and Scheffler 1979; DeFrancesco et al 1976; Scheffler et al 2004) and complex II-deficient cells (Albayrak et al 2003; Oostveen et al 1995) were grown in DMEM with 10% FCS, […] glucose and non-essential amino acids.
(§2) At approximately 70% confluency, cells were treated with up to 50 μM α-TOS (Sigma), up to 100 μM 3-BP (Aldrich) or 30 ng/ml of human recombinant tumor necrosis factor-related apoptosis—inducing ligand (TRAIL) (Weber et al, 2002) under normoxic or hypoxic conditions. For hypoxia, cells overlaid with nitrogen-purged medium were placed in a hypoxic chamber pre-flushed extensively with nitrogen. The hypoxic chamber with cells was then placed in the incubator as required. α-TOS was dissolved in ethanol and used such that the final ethanol concentration in cell culture medium was <0.1% (v/v). Stock solutions of 3-BP were prepared in PBS prior to use.
ATP measurement. MDA-MB-453 and NeuTL cells were seeded at 2×10^5 per ml and MCF-7 cells at 1.2×10^5 per ml into 96-well tissue culture microtitre plates and allowed to recover overnight before use. Cells were incubated for 6 or 24 h with α-TOS or 3-BP under normoxia or hypoxia as described above. ATP levels were then measured using an ATP bioluminescence assay kit HSII (Roche Applied Science) according to the manufacturer's instructions. Briefly, control or treated cells were transferred into black microtitre plates after incubation for 5 min at room temperature with the cell lysis reagent. Luciferase reagent was added and the signal detected immediately using a Fluorostar Optima plate reader (BMG Labtech). Triplicate wells were read for each condition and data evaluated using a standard calibration curve prepared with known concentrations of ATP.

MDA-MB-453 cells = assay: Apoptosis, annexin V-FITC method; format: cell-based, human; details: for apoptosis: MDA-MB-453 (erbB2-high), normoxia or hypoxia; for apoptosis after Akt1 knock-down: pre-treated with 60 pM Akt1 siRNA for 24 h, then drug 24 h
Protocol: as §1, §2
Apoptosis assessment. Apoptosis was quantified using the annexin V-FITC method, which detects phosphatidyl serine externalized in the early phases of apoptosis (Boersma et al, 1996). Briefly, cells were plated at 10^5 per well in 24-well plates and, after an overnight recuperation, treated with α-TOS or 3-BP alone or in combination. Floating and attached cells were harvested, washed with PBS, resuspended in 0.2 ml binding buffer (10 mM Hepes, 140 mM NaCl, 5 mM CaCl2, pH 7.4), incubated for 30 min at 4° C. with 2 μl annexin V-FITC (PharMingen), supplemented with 200 μl of 50 μg/ml propidium iodide (PI; Sigma), and analyzed by flow cytometry (FACScalibur, Becton Dickinson) using channel 1 for annexin V-FITC binding and channel 2 for PI staining. Cell death was quantified as the percentage of cells with increased annexin V binding and PI staining.
RNA interference (RNAi). Short-interfering RNA (siRNA) oligonucleotides with 3′-dTdT overhangs specific for Akt1 were synthesized by Qiagen. The sequences are as follows: target sequence: […] (SEQ ID NO 2); siRNA duplex sequences: sense—r([…] )dTdT (SEQ ID NO 3), antisense—r([…] )dTdT (SEQ ID NO 4). The transfection of cultured MDA-MB-453 cells with siRNA was performed using OligofectAmine (Invitrogen) and OptiMEM according to the manufacturer's instructions. Briefly, cells were allowed to reach 50% confluency and supplemented with […] siRNA pre-incubated with OligofectAmine and overlayed with OptiMEM. Cells were washed 24 h later with PBS, overlayed with complete DMEM and treated as required after an additional 24 h.
Transfection of MDA-MB-453 cells with siRNAs was performed using OligofectAmine and OptiMEM. Briefly, cells were allowed to reach ˜50% confluency and supplemented with 60 pmol/l siRNA pre-incubated with OligofectAmine and overlayed with OptiMEM. Cells were washed 24 h later with PBS, overlaid with complete DMEM, cultured for an additional 24 h, 48 h and transgene expression confirmed using Western blotting before they were used for further experiments.

MCF-7 cells = assay: Apoptosis, annexin V-FITC method; format: cell-based, human; details: MCF-7 (erbB2-low); 24 h; normoxia or hypoxia
Protocol: as §1, §2
Apoptosis assessment. Apoptosis was quantified using the annexin V-FITC method, which detects phosphatidyl serine externalized in the early phases of apoptosis (Boersma et al, 1996). Briefly, cells were plated at 10^5 per well in 24-well plates and, after an overnight recuperation, treated with α-TOS or 3-BP alone or in combination. Floating and attached cells were harvested, washed with PBS, resuspended in 0.2 ml binding buffer (10 mM Hepes, 140 mM NaCl, 5 mM CaCl2, pH 7.4), incubated for 30 min at 4° C. with 2 μl annexin V-FITC (PharMingen), supplemented with 200 μl of 50 μg/ml propidium iodide (PI; Sigma), and analyzed by flow cytometry (FACScalibur, Becton Dickinson) using channel 1 for annexin V-FITC binding and channel 2 for PI staining. Cell death was quantified as the percentage of cells with increased annexin V binding and PI staining. […]

[2] = molecular target: T1, complex II/SDH-dependent activity in NeuTL cells (Mus musculus, UniProt Q8K2B3+Q9CQA3+Q9CXV1+Q9CZB0); assay: MTT reduction assay of complex II/SDH activity in whole cells; format: cell-based, murine; details: for inhibition of MTT reduction after MitoQ pre-incubation: cells pre-incubated 1 h with MitoQ; for enzymatic reduction of MTT: within a few hours of treatment
T1 construct: For specifically measuring complex II activity in whole cells; endogenous in cells; host or cells: NeuTL murine breast cancer cells
Protocol: MTT assay. MTT solutions were prepared immediately before use by dissolving 2.5 mg/ml 3-(4,5-dimethyl[…] (MTT) (Sigma) in PBS alone or phenol red-free RPMI medium containing 20 mM succinic acid, pH 7.4. Stock solutions of 3-nitropropionic acid (3NPA) in ethanol, thenoyltrifluoroacetone (TTFA) in DMSO, 3-BP in PBS, α-TOS in DMSO, and MitoQ (Alleva et al, 2003, James et al, 2005) in ethanol were prepared. The drugs were tested on NeuTL cells cultured in exponential growth phase in 96-well microtitre plates using 4-8 replicate wells per dilution assayed. To assess the ability of MitoQ to restore MTT reduction, cells were pre-incubated for 60 min with 2 or 5 μM MitoQ. Final concentrations of ethanol or DMSO in cultures were ≦0.1%. Treated and control cells were allowed to reduce MTT to blue formazan crystals for 2 or 4 h at 37° C. and 5% CO2. After incubation, culture supernatants were removed except for 30 μl, before the formazan crystals were solubilized by addition of 150 μl DMSO, and absorbance values were measured at 570 nm using a Fluorostar Optima plate reader.
To this end, the present inventors investigated whether α-TOS interferes with UbQ binding in complex II. For specifically measuring complex II activity in whole cells, a short-term (1-2 h) assay was used based on the reduction of the tetrazolium salt, MTT (Maehara et al, 1988). […] For this, oxidative respiration of murine NeuTL breast cancer cells was sustained on high levels of succinate (20 mM), thereby promoting the SDH activity of complex II (Maehara et al, 1988). The cells were then assayed within 1-2 h for their ability to enzymatically reduce MTT, which under conditions of high succinate becomes a specific indicator of complex II/SDH-dependent activity (Maehara et al, 1988, Berridge and Tan, 1993).

[3] = tested on: erbB2 highly positive breast carcinomas; details: α-TOS 10 μmoles i.p. every 3 d; 3-BP 0.2 μmoles daily intratumorally
Protocol: (A) Nude mice were inoculated with MCF-7 cells and, after tumors became established, the animals were treated once every 3 d with 10 μmoles per mouse of α-TOS dissolved in DMSO or with DMSO alone, by intraperitoneal (i.p.) injection. Tumor size was measured using calipers and was correlated to the size of the carcinomas at the onset of the therapy. Four animals were used in each group. The results shown are mean values±S.E. The symbol ‘*’ denotes significant difference (p<0.05). (B) Female FVB/N erbB2 mice with palpable tumors (see General Materials and Methods) received either 10 μmoles α-TOS solubilized in corn oil/4% ethanol (n=11) or the corn oil/4% ethanol alone (control, n=9) by i.p. injection once every 3 d, or 0.2 μmoles 3-BP (n=8) in PBS at the tumor site every day. Tumor size was recorded using calipers. Two independent experiments were conducted. Results are represented as mean values±S.E. The symbol ‘*’ denotes significant difference (p<0.05) in the analysis of variance between the 3-BP and α-TOS curves.
Mouse tumor experiments. Nude mice were inoculated subcutaneously with MCF-7 cells (2×10^6 cells/mouse). After tumors developed (diameter of 3-7 mm), mice were injected intraperitoneally with 10 μmoles α-TOS in DMSO every 3 days. Control mice were injected with an equal volume (100 μl) of DMSO only. Tumor size was estimated by measuring with digital calipers. A colony of transgenic FVB/N2O2 rat c-neu mice carrying the rat HER-2/neu protooncogene driven by the MMTV promoter on the H-2^q FVB/N background (Guy et al, 1992) was established at the Griffith University Animal Facility and maintained under strict inbreeding conditions. The presence of the transgene was routinely confirmed by PCR. Approximately 70% of the female mice developed spontaneous mammary carcinomas with a mean latency time of 10 months. Female transgenic FVB/N2O2 rat c-neu mice bearing progressively growing tumors with a mean diameter of 10±5 mm were randomly assigned to control or treatment groups. Tumor size was measured using digital calipers. […]

B16-F1/nude mice = details: Kogure et al, 2005; cited from earlier work
Jurkat = details: cited from earlier work
A549 = details: cited from earlier work
C1271 = details: Kogure et al, 2004; cited from earlier work
NB4, HT93 = details: cited from earlier work
[4] = tested on: retinoic acid receptors (RARs); details: reporter constructs; cited from earlier work
[5] = tested on: Jurkat, HVT11, MCF7, MCF7-C3, U937, Meso-2; details: cited from earlier work
all cells = details: Zhang et al, 2001b; cited from earlier work
[6] = tested on: breast carcinomas with high erbB2 expression; assay: Breast carcinomas in FVB/N2O2 c-neu mice, ultrasound imaging; format: in vivo
Protocol: FIG. 11. Peptide conjugate LTVSPWY-α-TOS (SEQ ID NO 1) suppresses breast carcinomas. FVB/N2O2 c-neu female mice of >7 months of age with breast carcinomas, as detected by ultrasound imaging (USI), were treated by intraperitoneal injection of the vehicle or 5 μmol per mouse per dose of LTVSPWY-α-TOS (SEQ ID NO 1) solubilised in corn oil/ethanol (100:5, v/v) at times shown. The tumours were visualised and quantified using USI and are expressed relative to their volume at the onset of the treatment (A). […] The volume was […] at the onset of the experiment for both tumors. Data shown are mean values±SD (n=4-6) and the USI images are representative of tumours from each group.
This example describes the targeting of an α-TOS pro-drug to cancer cells over-expressing the receptor tyrosine kinase erbB2. An adduct of α-TOS was linked to the heptapeptide LTVSPWY (SEQ ID NO 1), which peptide is known for targeting cancer cells over-expressing erbB2. […] In fact, there was an unexpected 90% relative reduction in size of treated tumors compared to the untreated control.

T1 sequence (Q8K2B3 43-664): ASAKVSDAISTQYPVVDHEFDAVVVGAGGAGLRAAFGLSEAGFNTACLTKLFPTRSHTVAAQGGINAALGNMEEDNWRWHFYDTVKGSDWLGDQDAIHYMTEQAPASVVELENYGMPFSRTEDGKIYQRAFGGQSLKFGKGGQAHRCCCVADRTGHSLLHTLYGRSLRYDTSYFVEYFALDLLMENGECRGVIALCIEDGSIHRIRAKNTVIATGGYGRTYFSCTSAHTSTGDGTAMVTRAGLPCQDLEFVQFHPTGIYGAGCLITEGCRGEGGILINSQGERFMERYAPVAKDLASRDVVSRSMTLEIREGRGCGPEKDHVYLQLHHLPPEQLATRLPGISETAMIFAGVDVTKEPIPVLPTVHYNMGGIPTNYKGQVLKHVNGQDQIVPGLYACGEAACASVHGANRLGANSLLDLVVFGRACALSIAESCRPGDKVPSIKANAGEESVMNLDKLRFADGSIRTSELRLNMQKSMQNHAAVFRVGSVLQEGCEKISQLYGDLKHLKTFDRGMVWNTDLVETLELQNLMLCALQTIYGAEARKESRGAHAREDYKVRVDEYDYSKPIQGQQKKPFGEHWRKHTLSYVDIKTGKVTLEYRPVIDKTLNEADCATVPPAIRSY
T1 sequence (Q9CQA3 31-282): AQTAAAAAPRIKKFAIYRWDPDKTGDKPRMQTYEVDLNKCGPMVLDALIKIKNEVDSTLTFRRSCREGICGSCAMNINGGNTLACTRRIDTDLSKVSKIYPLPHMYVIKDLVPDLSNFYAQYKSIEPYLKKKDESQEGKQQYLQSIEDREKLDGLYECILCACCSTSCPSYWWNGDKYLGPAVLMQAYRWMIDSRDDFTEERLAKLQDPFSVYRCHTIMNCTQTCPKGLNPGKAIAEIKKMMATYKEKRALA
T1 sequence (Q9CZB0 30-169): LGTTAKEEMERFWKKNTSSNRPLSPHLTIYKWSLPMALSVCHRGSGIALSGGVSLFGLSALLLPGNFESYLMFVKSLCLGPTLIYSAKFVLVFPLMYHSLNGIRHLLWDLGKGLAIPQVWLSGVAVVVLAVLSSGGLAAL
T1 sequence (Q9CXV1 57-159): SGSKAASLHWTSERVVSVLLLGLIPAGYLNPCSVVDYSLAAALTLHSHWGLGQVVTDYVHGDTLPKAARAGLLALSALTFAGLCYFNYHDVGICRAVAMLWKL

O=C(O)C(=O)CBr [Compound 3-BP, 3-bromopyruvate, reference compound]
cellular ATP levels [1]: more potent inhibitors than α-TOS | apoptosis (MDA-MB-453 cells): strikingly resistant to killing by 3-BP, even with concentrations as high as 100 μM | apoptosis after Akt1 knock-down (MDA-MB-453 cells): particularly marked increase in cytotoxic responsiveness; also recorded: sensitizes | apoptosis (MCF-7 cells): more sensitive to killing by 3-BP under hypoxia than normoxia | complex II-mediated MTT reduction ([2]; absence of added succinate, 4 h): potent inhibitors of the complex II-mediated MTT reduction | inhibition of MTT reduction after MitoQ pre-incubation [2]: not significantly different | enzymatic reduction of MTT [2]: significant decreases occurring in the levels of MTT reduction | tumor growth [3]: either growth arrest or partial regression

Cc1c(C)c2c(c(C)c1OC(=O)C(=O)O)CCC(C)(CCCC(C)CCCC(C)CCCC(C)C)O2 (centres unmarked) [Compound 10]
cytotoxicity in mice inoculated with B16-F1 melanoma cells (B16-F1/nude mice): non-selective cytotoxicity

Cc1c(C)c2c(c(C)c1OC(=O)CC(=O)O)CCC(C)(CCCC(C)CCCC(C)CCCC(C)C)O2 (centres unmarked) [Compound 11]
cytotoxicity in mice inoculated with B16-F1 melanoma cells (B16-F1/nude mice): non-selective cytotoxicity

COc1c(C)c(C)c2c(c1C)CCC(C)(CCCC(C)CCCC(C)CCCC(C)C)O2 (centres unmarked) [Compound 18]
pro-apoptotic activity (Jurkat): inactive

CCC(=O)Oc1c(C)c(C)c2c(c1C)CCC(C)(CCCC(C)CCCC(C)CCCC(C)C)O2 (centres unmarked) [Compound 19]
pro-apoptotic activity (A549): inactive

Cc1c(C)c2c(c(C)c1OC(=O)CCCCCC(=O)O)CCC(C)(CCCC(C)CCCC(C)CCCC(C)C)O2 (centres unmarked) [Compound 24]
pro-apoptotic activity (C1271): no activity at all

CCOC(=O)CCC(=O)Oc1c(C)c(C)c2c(c1C)CCC(C)(CCCC(C)CCCC(C)CCCC(C)C)O2 (centres unmarked) [Compound 25]
pro-apoptotic activity (C1271): without pro-apoptotic activity

CC(C=CC1=C(C)CCCC1(C)C)=CC=CC(C)=CC(=O)Oc1c(C)c(C)c2c(c1C)CCC(C)(CCCC(C)CCCC(C)CCCC(C)C)O2 (centres unmarked) [Compound 28]
IC50 (NB4, HT93): 100 to 1000 nM | agonism at retinoic acid receptors [4]: acted as agonists for retinoic acid receptors (RARs)

CC(C=CC1=C(C)CCCC1(C)C)=CC=CC(C)=CC(=O)Oc1c(C)c(C)c2c(c1C)CCC(C)(CCCC(C)CCCC(C)CCCC(C)C)O2 (centres unmarked) [Compound 29]
agonism at retinoic acid receptors [4]: acted as agonists for retinoic acid receptors (RARs)

Cc1cc(OC(=O)CCC(=O)O)c(C)c2c1OC(C)(CCCC(C)CCCC(C)CCCC(C)C)CC2 (centres unmarked) [Compound 32]
IC50, relative to α-TOS [5]: 50% of α-TOS

O=C(CC(=O)C(F)(F)F)c1cccs1 [TTFA, 4,4,4-trifluoro-1-(2-thienyl)-1,3-butanedione]
inhibition of MTT reduction after MitoQ pre-incubation [2]: significantly overcome by pre-incubation of the cells with MitoQ | enzymatic reduction of MTT [2]: significantly inhibited the enzymatic reduction of MTT | toxicity to cells (all cells): toxic to all cells

LTVSPWY-α-TOS: adduct of α-TOS linked to the heptapeptide LTVSPWY (SEQ ID NO 1) (also: α-tocopheryl succinate adduct, attachment site not given here)
tumour volume ([6]; day 15, 5 μmol per dose per mouse i.p., representative tumour, volume −40 mm^3 at onset): 34.8 mm^3 | relative reduction in size of treated tumors compared to the untreated control ([6]; mouse, in vivo): 90%

B1: TRAIL: human recombinant tumor necrosis factor-related apoptosis—inducing ligand (protein, UniProt P50591 1-281, looked up)
Tumor necrosis factor ligand …: MAMMEVQGGPSLGQTCVLIVIFTVLLQSLCVAVTYVYFTNELKQMQDKYSKSGIACFLKEDDSYWDPNDEESMNSPCWQVKWQLRQLVRKMILRTSEETISTVQEKQQNISPLVRERGPQRVAAHITGTRGRSNTLSSPNSKNEKALGRKINSWESSRSGHSFLSNLHLRNGELVIHEKGFYYIYSQTYFRFQEEIKENTKNDKQMVQYIYKYTSYPDPILLMKSARNSCWSKDAEYGLYSIYQGGIFELKENDRIFVSVTNEHLIDMDHEASFFGAFLVG
cellular ATP levels [1]: more potent inhibitors than α-TOS | apoptosis (MDA-MB-453 cells): much more resistant to apoptosis | apoptosis after Akt1 knock-down (MDA-MB-453 cells): sensitizes
